# Legend:
# [1] = system: human hair follicles (HF); assay: Hair follicle organ culture: microscopic hair cycle staging; format: cell-based; settings: vs vehicle
# Experimental: 12-44 full-length frontotemporal hair follicles (HF) were obtained from four human female donors >50 years old. Donors were caucasian female subjects […], respectively (Donor 1: 12 temporal anagen HFs; Donor 2: 29; Donor 3: 44; Donor 4: 32). After microdissection from skin as described (Edelkamp et al., Methods Mol Biol, 2020, 2154:105-119; and Langan et al., Exp Dermatol, 2015, December; 24(12):903-1), HFs were placed in adequate culture medium and allowed a 24 h rest period to allow them to recover from the trauma of microdissection. Test substance (either vehicle (0.3% EtOH) or E4 at concentrations of 30 μM, 3 μM or 300 nM) was added to the medium at the end of the 24 h. Total culturing time was 5-7 days depending on the studied parameters and the experimental question. The experimental design for the hair follicle organ culture experiment is depicted in FIG. 12. Longer term culture experiments may be used to analyze the capacity to delay the onset of catagen.
# Hair cycle staging and calculation of hair cycle score is indicative of hair cycle progression and anagen-catagen transition (Langan et al., Exp Dermatol, 2015). Hair cycle staging and hair cycle score was performed at the end of the culture. The hair cycle stage of each HF was determined according to several established macroscopic and microscopic parameters (Langan et al Exp Dermatol, 2015). For macroscopic hair cycle stage, bright field images of the living HFs were taken with a digital microscope (Keyence VHX 900). Microscopic hair cycle staging was determined using Ki 67/TUNEL immunohistology and Masson Fontana histochemistry. Hair cycle staging was analyzed by calculating the percentage of HFs in each hair cycle stage. Hair cycle score was determined by giving an arbitrary score to each hair cycle stage as following: anagen: 100, early catagen: 200, mid catagen: 300, late catagen: 400, dystrophic 500, with a higher score being indicative of a higher number of HFs in catagen.
# [2] = system: human epidermal keratinocytes; assay: Wound healing gene expression RT-qPCR array, keratinocytes; format: cell-based; settings: 10^−7M, 15 h, relative to ethanol control
# Text: The healing properties of E4 were investigated at the transcriptional level by studying gene expression changes by RT-qPCR. 84 genes qPCR arrays focusing on the wound healing process were used. These arrays contain genes important for the three phases of wound healing process, including extra-cellular matrix (ECM) remodeling factors, inflammatory cytokines and chemokines as well as growth factors and major signaling molecules. The changes in gene expression were interpreted in a dermo cosmetic context in order to highlight the potential benefits of the E4 towards wound healing.
# After 24 h seeded on 25 cm^2 culture flasks (T25), cells were treated with E4 during 15 h. […]
# The RNA concentration was determined by spectrophotometric measurement (QIAxpert, Qiagen) and the RNA quality was analyzed by capillarity electrophoresis (Agilent Bioanalyzer 2100—Agilent RNA 6000 Nano Kit). […]
# The qPCR method was used to quantify the expression changes of specific markers in the cDNA populations. […]
# The amplification of target genes was performed following the supplier's recommendations thanks to a “HotStart Taq DNA Polymerase” and to the use of SYBR Green as detection method. The SYBR Green is a marker emitting fluorescence once inserted between the paired bases of nucleic acids. The fluorescence intensity is thus directly proportional to the quantity of produced amplicons. […]
smiles,measurement,setting,value
"C[C@]12CC[C@@H]3c4ccc(O)cc4CC[C@H]3[C@@H]1[C@@H](O)[C@@H](O)[C@@H]2O [E4, 1,3,5 (10)-estratrien-3,15alpha,16alpha,17beta-tetrol]",prolonged anagen (microscopic hair cycle staging),[1]; 300 nM,tendentially
same,prolonged anagen (microscopic hair cycle staging),[1]; 3 μM,significantly
same,prolonged anagen (microscopic hair cycle staging),[1]; 30 μM,tendentially
same,"MMP2 (Matrix metalloproteinase-2) expression, FC",[2],1.1434 Fold Change (FC)
same,"TIMP1 (Metalloproteinase inhibitor 1) expression, FC",[2],0.8949 Fold Change (FC)
